Assays:
[1] = biological target: T1, Recombinant purified human JAK3 (Homo sapiens, UniProt P52333); assay: JAK3 kinase inhibitory activity, ADP-Glo kinase assay (Promega V9441); assay type: biochemical; details: ATP 5 uM, 4 ng JAK3 per reaction, 1 hour 30 °C, chemiluminescence
T1 construct: purchased Promega V9441
T1 sequence (P52333 1-1124): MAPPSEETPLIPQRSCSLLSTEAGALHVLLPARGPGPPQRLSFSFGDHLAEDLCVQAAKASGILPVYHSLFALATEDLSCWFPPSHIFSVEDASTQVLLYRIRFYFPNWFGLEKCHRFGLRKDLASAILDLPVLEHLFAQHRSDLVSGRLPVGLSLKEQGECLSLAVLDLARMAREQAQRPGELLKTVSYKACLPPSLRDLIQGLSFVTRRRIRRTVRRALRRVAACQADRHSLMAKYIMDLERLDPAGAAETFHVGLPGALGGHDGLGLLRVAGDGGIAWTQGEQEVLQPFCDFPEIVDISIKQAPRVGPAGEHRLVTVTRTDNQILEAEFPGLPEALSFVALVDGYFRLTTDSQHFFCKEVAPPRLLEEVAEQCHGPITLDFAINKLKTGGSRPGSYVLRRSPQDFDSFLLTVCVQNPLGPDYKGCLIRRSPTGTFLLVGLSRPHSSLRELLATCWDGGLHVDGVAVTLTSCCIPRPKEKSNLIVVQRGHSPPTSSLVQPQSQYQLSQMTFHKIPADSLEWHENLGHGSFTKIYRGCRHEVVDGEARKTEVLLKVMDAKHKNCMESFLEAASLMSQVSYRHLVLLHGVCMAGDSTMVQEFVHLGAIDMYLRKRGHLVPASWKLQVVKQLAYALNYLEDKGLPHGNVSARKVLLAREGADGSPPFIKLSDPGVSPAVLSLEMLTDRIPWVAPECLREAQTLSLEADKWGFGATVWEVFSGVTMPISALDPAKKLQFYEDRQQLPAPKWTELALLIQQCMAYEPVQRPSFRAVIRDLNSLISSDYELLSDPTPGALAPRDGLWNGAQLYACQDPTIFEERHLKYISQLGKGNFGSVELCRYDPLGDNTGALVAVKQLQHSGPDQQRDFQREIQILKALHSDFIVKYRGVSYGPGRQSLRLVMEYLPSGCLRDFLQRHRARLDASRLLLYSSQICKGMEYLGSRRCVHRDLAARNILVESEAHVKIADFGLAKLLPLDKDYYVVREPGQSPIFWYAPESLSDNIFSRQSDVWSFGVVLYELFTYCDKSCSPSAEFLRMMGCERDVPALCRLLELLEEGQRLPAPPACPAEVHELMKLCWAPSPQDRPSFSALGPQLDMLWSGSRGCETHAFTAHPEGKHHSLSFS
Protocol: (§1) JAK3 and BTK kinase inhibitory activities were measured for the compounds prepared in the above Examples through in vitro analysis on the ADP Glow (Glo) platform.
(§2) Specifically, the inhibitory activities of JAK3 and BTK kinase were measured using a JAK3 kinase assay kit (Promega, V9441) and a BTK kinase assay kit (Promega, V9071) which were purchased from Promega. Recombinant purified human JAK3 and BTK were diluted with 1 x kinase reaction buffer (JAK3: 40 mM Tris-Cl, pH 7.5, 20 mM MgCh, 0.1 mg/mL BSA and 50 uM DTT / BTK: 40 mM Tris-Cl, pH 7.5, 20 mM MgCl2, 0.1 mg/mL BSA, 2 mM MnCl2 and 50 uM DTT) and added to a 96 well plate (JAK3: final concentration of 4 ng per reaction/BTK: final concentration of 8 ng per reaction). The compounds were treated so as to be finally a 1% DMSO aqueous solution, and a substrate cocktail containing ATP (JAK3: final concentration of 5 uM / BTK: final concentration of 10 uM) and 0.2 µg/µL of Poly(Glu4, Tyr1) peptide (JAK3 and BTK final concentration) in the total 25 µL reactants was added to a 96-well plate to initiate enzymatic reaction. After incubation (30 °C) for 1 hour, equivalent volume (25 µL per reaction) of ADP Glo was added and incubated (30 °C) for 40 minutes at room temperature. Then, a kinase detection reagent (50 µL per reaction) was added and incubated (30 °C) for 30 minutes at room temperature. The kinase activity was measured by chemiluminescence according to the instructions of ADP Glo kinase assay kit, and the inhibitory activity of the compounds according to the present invention was calculated. For the analysis of the results of each compound, Microsoft Excel was used, and IC50 values were calculated by SigmaPlot software.

[2] = biological target: T2, Recombinant purified human BTK (Homo sapiens, UniProt Q06187); assay: BTK kinase inhibitory activity, ADP-Glo kinase assay (Promega V9071); assay type: biochemical; details: ATP 10 uM, 8 ng BTK per reaction, 1 hour 30 °C, chemiluminescence
T2 construct: purchased Promega V9071
T2 sequence (Q06187 whole entry): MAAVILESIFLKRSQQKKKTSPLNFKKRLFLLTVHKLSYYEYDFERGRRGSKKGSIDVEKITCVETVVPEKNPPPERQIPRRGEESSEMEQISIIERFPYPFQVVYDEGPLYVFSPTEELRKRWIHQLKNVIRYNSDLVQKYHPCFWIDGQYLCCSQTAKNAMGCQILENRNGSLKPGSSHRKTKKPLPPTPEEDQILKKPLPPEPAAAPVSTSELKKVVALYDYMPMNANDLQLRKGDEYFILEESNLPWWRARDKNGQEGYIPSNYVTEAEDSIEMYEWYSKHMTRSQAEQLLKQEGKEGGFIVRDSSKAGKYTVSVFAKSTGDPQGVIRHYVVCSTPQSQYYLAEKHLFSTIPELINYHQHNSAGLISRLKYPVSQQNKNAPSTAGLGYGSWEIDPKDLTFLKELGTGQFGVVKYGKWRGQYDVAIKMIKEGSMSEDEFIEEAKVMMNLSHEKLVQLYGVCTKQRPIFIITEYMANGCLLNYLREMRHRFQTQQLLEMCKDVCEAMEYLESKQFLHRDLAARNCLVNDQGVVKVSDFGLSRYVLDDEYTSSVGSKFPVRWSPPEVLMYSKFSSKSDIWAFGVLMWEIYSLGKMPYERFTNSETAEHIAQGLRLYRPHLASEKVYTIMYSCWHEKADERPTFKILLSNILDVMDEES
Protocol: as §1, §2

Row | SMILES | IC50 [1] | IC50 [2]
1 | C=CC(=O)N1CCC[C@@H](Nc2nc(Nc3cnn(C4CC4)c3)nc3[nH]cc(C)c23)C1 [Example 78, (R)-1-(3-((2-((1-cyclopropyl-1H-pyrazol-4-yl)amino)-5-methyl-7H-pyrrolo[2,3-d]pyrimidin-4-yl)amino)piperidin-1-yl)prop-2-en-1-one] | 0.7 nM | 11.5 nM
2 | CCn1cc(Nc2nc(O[C@@H]3CCCN(C(=O)/C(C#N)=C/C(C)C)C3)c3c(C#N)c[nH]c3n2)cn1 [Example 156, (R,E)-4-((1-(2-cyano-4-methylpent-2-enoyl)piperidin-3-yl)oxy)-2-((1-ethyl-1H-pyrazol-4-yl)amino)-7H-pyrrolo[2,3-d]pyrimidine-5-carbonitrile] | 0.5 nM | 1.1 nM
3 | CCn1cc(Nc2nc(N[C@H]3CN(C(=O)CC#N)CC[C@H]3F)c3c(Cl)n[nH]c3n2)cn1 [Example 138] | > 80 nM | 92.7 nM
4 | CCn1cc(Nc2nc(N[C@@H]3CCCN(C(=O)/C(C#N)=C/C(C)C)C3)c3cc[nH]c3n2)cn1 [Example 172, (R,E)-2-(3-((2-((1-ethyl-1H-pyrazol-4-yl)amino)-7H-pyrrolo[2,3-d]pyrimidin-4-yl)amino)piperidine-1-carbonyl)-4-methylpent-2-enenitrile] | 0.9 nM | 1.6 nM
5 | C=CC(=O)N1CC[C@@H](C)[C@@H](Nc2nc(Nc3cnn(CC)c3)nc3[nH]nc(Cl)c23)C1 [Example 92, 1-((3R,4R)-3-((3-chloro-6-((1-ethyl-1H-pyrazol-4-yl)amino)-1H-pyrazolo[3,4-d]pyrimidin-4-yl)amino)-4-methylpiperidin-1-yl)prop-2-en-1-one] | 4.5 nM | 2.1 nM
6 | C=CC(=O)N1CCC[C@@H](Nc2nc(Nc3cccc(NC(=O)N4CCCC4)c3)nc3[nH]ccc23)C1 [Example 2, (R)-N-(3-(4-(1-acryloylpiperidin-3-ylamino)-7H-pyrrolo[2,3-d]pyrimidin-2-ylamino)phenyl)pyrrolidine-1-carboxamide] | 8.9 nM | 27 nM

The next lines start with the values.

Row | IC50 [1] | IC50 [2] | SMILES
7 | 3.7 nM | 1.7 nM | C=CC(=O)N1CCC[C@@H](Nc2nc(Nc3cnn(C(C)(C)C)c3)nc3[nH]ncc23)C1 [Example 66, (R)-1-(3-((6-((1-(tert-butyl)-1H-pyrazol-4-yl)amino)-1H-pyrazolo [3,4-d]pyrimidin-4-yl)amino)piperidin-1-yl)prop-2-en-1-one]
8 | 43.1 nM | 1.5 nM | C=CC(=O)N1CC[C@@H](C)[C@@H](Nc2nc(Nc3cnn(C(F)F)c3)nc3[nH]nc(Cl)c23)C1 [Example 127, 1-((3R,4R)-3-((3-chloro-6-((1-(difluoromethyl)-1H-pyrazol-4-yl)amino)-1H-pyrazolo [3,4-d]pyrimidin-4-yl)amino)-4-methylpiperidin-1-yl)prop-2-en-1-one]
9 | > 80 nM | 708 nM | C=CC(=O)N1CCC[C@@H](Nc2nc(Nc3ccc(N4CCOCC4)cc3F)nc3[nH]cc(Cl)c23)C1 [Example 97]
10 | 11.4 nM | 2.9 nM | CCn1cc(Nc2nc(N[C@H]3CN(C(=O)/C(C#N)=C/C(C)C)CC[C@H]3C)c3c(Cl)n[nH]c3n2)cn1 [Example 170, (E)-2-((3R,4R)-3-((3-chloro-6-((1-ethyl-1H-pyrazol-4-yl)amino)-1H-pyrazolo[3,4-d]pyrimidin-4-yl)amino)-4-methylpiperidine-1-carbonyl)-4-methylpent-2-enenitrile]
11 | 2.8 nM | 1.3 nM | C=CC(=O)N1CCC[C@@H](Nc2nc(Nc3cnn(C4CCOCC4)c3)nc3[nH]ncc23)C1 [Example 71, (R)-1-(3-((6-((1-(tetrahydro-2H-pyran-4-yl)-1H-pyrazol-4-yl)amino)-1H-pyrazolo[3,4-d]pyrimidin-4-yl)amino)piperidin-1-yl)prop-2-en-1-one]
12 | 0.1 nM | 1.9 nM | C=CC(=O)N1CCC[C@@H](Nc2nc(Nc3cnn(CC(F)F)c3)nc3[nH]cc(Cl)c23)C1 [Example 39, (R)-1-(3-(5-chloro-2-(1-(2,2-difluoroethyl)-1H-pyrazol-4-ylamino)-7H-pyrrolo[2,3-d]pyrimidin-4-ylamino)piperidin-1-yl)prop-2-en-1-one]
